How the values were obtained:
[1] = test system: cultured cerebral cortex neurons; test: 3H-GABA release, cultured cerebral cortex neurons; type: cell-based; conditions: Cerebral cortex neuron; inhibition of stimulated 3H-GABA release, mouse cortical neurons, Table 1
Source text: The compounds of the invention have also been tested for their ability to inhibit GABA release from cultured cerebral cortex neurons in the following test:
^3 H-GABA Release, Cortical Neurons
Background: Neurons which express receptors for excitatory amino acids can be depolarized by such compounds and this depolarization will ultimately lead to a release of transmitter substance from the neurons. Cultured neurons obtained from 15-day-old mouse embryo cortex are mainly GABAergic and express all types of excitatory amino acid receptors. This means that they can be stimulated by high potassium or by the excitatory amino acids, NMDA, AMPA and kainate to release their neurotransmitter GABA.
^3 H-GABA may be used to label the GABA transmitter pool in the neurons and the release of ^3 H-GABA from the neurons may be used as a simple functional model for studies of the effects of excitatory amino acids and their antagonists.
Method: Cerebral cortices of 16-day-old mouse embryos are chopped in 0.4×0.4 mm cubes. The tissue is dissociated by mild trypsinization (0.1% (wt/vol) trypsin, 37° C., 15 min) and subsequently inoculated into poly-L-lysine-coated 3-cm Petri dishes containing a slightly modified DMEM (24.5 mM KCI, 30 mM glucose) supplemented with p-aminobenzoate (7 μM), insulin (100 mU/L) and 10% (vol/vol) horse serum. Cells are maintained in culture for 5-7 days with the addition of the antimitotic agent cytosine arbinoside (40 μM) from day 2 in vitro to prevent glial profileration. For further details and references, see Drejer et al. Exp. Brain Res. 47, 259 (1982).
Release experiments are performed using the model described by Drejer et al. Life Sci. 38, 2077 (1986). Cerebral cortex neurons cultured in Petri dishes (30 mm) are added 100 μM γ-vinyl-GABA one hour before the experiment in order to inhibit degradation of GABA in the neurons. 30 min before the experiment 5 μCi ^3 H-GABA is added to each culture and after this preloading period the cell monolayer at the bottom of the dish is covered with a piece of nylon mesh to protect the cells against mechanical damage and to facilitate dispersion of medium over the cell layer. The preloading medium is removed and the Petri dishes are placed in a superfusion system consisting of a peristaltic pump continously delivering thermostated 37° C. superfusion medium HEPES buffered saline (HBS): 10 mM HEPES, 135 mM NaCl, 5 mM KCI, 0.6 mM MgSO4, 1.0 mM CaCl2 and 6 mM D-glucose; pH 7.4) from a reservoir to the top of the slightly tilted Petri dish. The medium is continously collected from the lower part of the dish and delivered to a fraction collector. Initially, the cells are superfused with HBS for 15 min (flow rate 2 ml/min). Then the cells are stimulated for 30 sec every 4 min by changing the superfusion medium from HBS to a corresponding medium containing […].
Test subtances are dissolved in 50% DMSO, 48% ethanol. The final DMSO and ethanol concentration in the assay must not exceed 0.1%.
The stimulated release of ^3 H-GABA (cpm) are corrected for the mean basal release(cpm) before and after stimulation.
The stimulated release in the presence of antagonists are expressed relative to the stimulated release and the IC50 value for the antagonist is calculated (the concentration (μM) of the test substance which inhibit 50% of the stimulated ^3 H-GABA release).
(§1) The test results obtained by testing the compounds of the invention for their in-vitro AMPA receptor affinity and their ability to inhibit GABA release are presented in the following table: […]

[2] = test system: AMPA-induced clonic seizures in NMRI mice; test: AMPA-induced clonic seizures; type: in vivo; conditions: Mus musculus; i.v. 5 min (or p.o. 30 min) before 0.3 μg icv AMPA, 10 female NMRI mice per dose; route of the value not given; read-out: ED50 (dose inhibiting 50% of the mice from having clonic seizures)
Protocol: The compound, 8-methyl-5-(4(N,N-dimethylsulphamoyl)-phenyl)-6,7,8,9-tetrahydro-1H-pyrrolo[3,2-h]isoquinoline-2,3-dione-3-oxime has also been tested for its ability to inhibit the clonic seizures induced by AMPA in the following test:
In Vivo activity (AMPA-induced clonic seizures)
AMPA given icv (intracerebroventricular) (15 μg/kg) to NMRI mice induces clonic seizures which should be inhibited by non-NMDA receptor antagonists. Method: Test compound was given i.v. 5 min (or p.o. 30 min) before a 0.3 μg icv administration of AMPA to 10 female NMRI mice (weighing 24-26 g) per dose. The number of mice experiencing clonic seizures within the next 5 min was noted. An ED50 value was calculated as the dose inhibiting 50% of the mice from having clonic seizures.

AMPA receptor = AMPA receptor binding affinity (in vitro); conditions: Table 1
Source text: In Vitro activity (receptor affinity):
as §1

[3] = test system: gerbil hippocampus CA1-layer, global ischaemia; test: Transient Forebrain Ischemia Model (2-VO Gerbils); type: in vivo; conditions: 30 mg/kg i.p. 30, 60 and 90 min post occlusion (total 90 mg/kg); ischaemic score 4 days later; Mann-Whitney test
Protocol: The compound, 8-methyl-5-(4-(N,N-dimethylsulphamoyl)-phenyl)-6,7,8,9-tetrahydro-1H-pyrrolo[3,2-h]isoquinoline-2,3-dione-3-oxime has also been tested in the following animal model of global ischaemia:
Transient Forebrain Ischemia Model (2-VO Gerbils)
Gerbils were anaesthetized with halothane, right and left carotid arteries located and occluded for 4 minutes. Animals were kept warm before and after the operation using heating lamps. During the operation the gerbils were placed on heating plates, body temperature controlled and maintained at 37°±0.5° C. Postocclusion, the gerbils were divided in two groups. One group received 30 mg/kg test compound i.p. 30, 60, and 90 min post occlusion (total dose was 90 mg/kg). The control group received 5.5% glucose i.p. at the same time intervals. Four days later, the animals were sacrificed, brains removed and cooled to -70° C. Thereafter, the brains were sectioned in […] thick sections of which 5-7 with hippocampal tissue were selected and stained with hematoxylin eosine (HE).
Based upon the degree of hippocampal damage, each hippocampus was categorised into one of four groups (Group 1: no damage in the CA1-layer; Group 2: the CA1-layer partly damaged; Group 3: the CA1-layer completely damaged; and Group 4: damage in more than just the CA1-layer). […]

Structure (SMILES) | IC50 [1] | ED50 [2] | IC50 (AMPA receptor) | neuroprotective effect in the gerbil 2-VO model [3]
CN1CCc2c(-c3ccc(S(=O)(=O)N(C)C)cc3)cc3c(c2C1)NC(=O)C3=NO [8-methyl-5-(4-(N,N-dimethylsulphamoyl)-phenyl)-6,7,8,9-tetrahydro-1H-pyrrolo[3,2-h]-isoquinoline-2,3-dione-3-oxime] | 120 nM | 3 mg/kg | 20 nM | significant neuroprotective effect
CN1CCc2c(-c3ccc(S(N)(=O)=O)cc3)cc3c(c2C1)NC(=O)C3=NO [8-methyl-5-(4-(sulphamoyl)phenyl)-6,7,8,9-tetrahydro-1H-pyrrolo[3,2-h]isoquinoline-2,3-dione-3-oxime] | 270 nM | – | 25 nM | –
